Active and inactive are the calls of the source. The rule behind the calls is not given here.
Columns and labels:
[1] = test system: HCT-116; assay: Induction of apoptosis in human HCT-116 cells assessed as increase in intracellular ROS level at 10 to 1000 nM incubated for 4 to 8 hrs by DCFH-DA staining based fluorescence microscopy; format: functional, cell-based; conditions: dose 10-1000 nM, time 4-8 hrs
[2] = test system: A549; assay: Growth inhibition of human A549 cells incubated for 48 hrs by MTT reagent based ELISA reader analysis; format: functional, cell-based; conditions: A549, 48 h
[3] = test system: HCT-116; assay: Inhibition of cell migration in human HCT-116 cells assessed as intercellular distance at 5 nM incubated for 24 hrs by inverted phase-contrast microscopic analysis (reference value: 1 +/- 0.2 millimeter); format: functional
[4] = test system: PDX14244; assay: Antitumor activity against human PDX14244 cells xenografted in SCID mouse model assessed as reduction in tumor volume at 8 mg/kg,po administrated once per week for 3 weeks; format: functional, organism-based
[5] = test system: HCT-116; assay: Induction of apoptosis in human HCT-116 cells assessed as downregulation of Survivin protein expression incubated for 48 hrs by Western blotting analysis; format: functional, cell-based
[6] = test system: HCT-116; assay: Induction of apoptosis in human HCT-116 cells assessed as modulation of TOP1 mRNA expression at 10 to 500 nM incubated for 6 to 48 hrs by RNA analysis; format: functional, cell-based; conditions: dose 10-500 nM, time 6-48 hrs
[7] = test system: HCT-116; assay: Induction of apoptosis in human HCT-116 cells assessed as modulation of DDX6 mRNA expression at 10 to 500 nM incubated for 6 to 48 hrs by RNA analysis; format: functional, cell-based; conditions: dose 10-500 nM, time 6-48 hrs
[8] = test system: HCT-116; assay: Induction of apoptosis in human HCT-116 cells assessed as modulation of DDX17 mRNA expression at 10 to 500 nM incubated for 6 to 48 hrs by RNA analysis; format: functional, cell-based; conditions: dose 10-500 nM, time 6-48 hrs
[9] = test system: HCT-116; assay: Induction of apoptosis in human HCT-116 cells assessed as modulation of DDX19B mRNA expression at 10 to 500 nM incubated for 6 to 48 hrs by RNA analysis; format: functional, cell-based; conditions: dose 10-500 nM, time 6-48 hrs
[10] = test system: HCT-116; assay: Induction of apoptosis in human HCT-116 cells assessed as modulation of DDX21 mRNA expression at 10 to 500 nM incubated for 6 to 48 hrs by RNA analysis; format: functional, cell-based; conditions: dose 10-500 nM, time 6-48 hrs
[11] = test system: HCT-116; assay: Induction of apoptosis in human HCT-116 cells assessed as modulation of DDX42 mRNA expression at 10 to 500 nM incubated for 6 to 48 hrs by RNA analysis; format: functional, cell-based; conditions: dose 10-500 nM, time 6-48 hrs
[12] = test system: HCT-116; assay: Induction of apoptosis in human HCT-116 cells assessed as modulation of DDX47 mRNA expression at 10 to 500 nM incubated for 6 to 48 hrs by RNA analysis; format: functional, cell-based; conditions: dose 10-500 nM, time 6-48 hrs
[13] = test system: HCT-116; assay: Induction of apoptosis in human HCT-116 cells assessed as modulation of DDX49 mRNA expression at 10 to 500 nM incubated for 6 to 48 hrs by RNA analysis; format: functional, cell-based; conditions: dose 10-500 nM, time 6-48 hrs
[14] = test system: HCT-116; assay: Induction of apoptosis in human HCT-116 cells assessed as upregulation of ATF3 mRNA expression at 10 to 500 nM incubated for 6 to 48 hrs by RNA analysis; format: functional, cell-based; conditions: dose 10-500 nM, time 6-48 hrs
[15] = test system: HCT-116; assay: Induction of apoptosis in human HCT-116 cells assessed as upregulation of Bax mRNA expression at 10 to 500 nM incubated for 6 to 48 hrs by RNA analysis; format: functional, cell-based; conditions: dose 10-500 nM, time 6-48 hrs
[16] = test system: HCT-116; assay: Induction of apoptosis in human HCT-116 cells assessed as upregulation of CDKN1A mRNA expression at 10 to 500 nM incubated for 6 to 48 hrs by RNA analysis; format: functional, cell-based; conditions: dose 10-500 nM, time 6-48 hrs
[17] = test system: HCT-116; assay: Induction of apoptosis in human HCT-116 cells assessed as downregulation of BIRC5 mRNA expression at 10 to 500 nM incubated for 6 to 48 hrs by RNA analysis; format: functional, cell-based; conditions: dose 10-500 nM, time 6-48 hrs
[18] = test system: HCT-116; assay: Induction of apoptosis in human HCT-116 cells assessed as downregulation of PRIM1 mRNA expression at 10 to 500 nM incubated for 6 to 48 hrs by RNA analysis; format: functional, cell-based; conditions: dose 10-500 nM, time 6-48 hrs
[19] = test system: HCT-116; assay: Induction of apoptosis in human HCT-116 cells assessed as downregulation of RFC3 mRNA expression at 10 to 500 nM incubated for 6 to 48 hrs by RNA analysis; format: functional, cell-based; conditions: dose 10-500 nM, time 6-48 hrs
[20] = test system: HCT-116; assay: Induction of apoptosis in human HCT-116 cells assessed as upregulation of XPC mRNA expression at 10 to 500 nM incubated for 6 to 48 hrs by RNA analysis; format: functional, cell-based; conditions: dose 10-500 nM, time 6-48 hrs
[21] = test system: HCT-116; assay: Activation of innate immune response in human HCT-116 cells assessed as upregulation of IL-12B gene expression at 10 to 500 nM incubated for 6 to 48 hrs by RNA analysis; format: functional, cell-based; conditions: dose 10-500 nM, time 6-48 hrs
[22] = test system: HCT-116; assay: Activation of innate immune response in human HCT-116 cells assessed as upregulation of IL-12RB2 gene expression at 10 to 500 nM incubated for 6 to 48 hrs by RNA analysis; format: functional, cell-based; conditions: dose 10-500 nM, time 6-48 hrs
[23] = test system: HCT-116; assay: Activation of innate immune response in human HCT-116 cells assessed as upregulation of IRF5 gene expression at 10 to 500 nM incubated for 6 to 48 hrs by RNA analysis; format: functional, cell-based; conditions: dose 10-500 nM, time 6-48 hrs
[24] = test system: HCT-116; assay: Induction of apoptosis in human HCT-116 cells assessed as downregulation of END1 gene expression at 10 to 500 nM incubated for 6 to 48 hrs by RNA analysis; format: functional, cell-based; conditions: dose 10-500 nM, time 6-48 hrs
[25] = test system: HCT-116; assay: Induction of apoptosis in human HCT-116 cells assessed as downregulation of PCK2 gene expression at 10 to 500 nM incubated for 6 to 48 hrs by RNA analysis; format: functional, cell-based; conditions: dose 10-500 nM, time 6-48 hrs
[26] = test system: HCT-116; assay: Induction of apoptosis in human HCT-116 cells assessed as downregulation of RANBP2 gene expression at 10 to 500 nM incubated for 6 to 48 hrs by RNA analysis; format: functional, cell-based; conditions: dose 10-500 nM, time 6-48 hrs
[27] = test system: HCT-116; assay: Induction of apoptosis in human HCT-116 cells assessed as downregulation of NUP160 gene expression at 10 to 500 nM incubated for 6 to 48 hrs by RNA analysis; format: functional, cell-based; conditions: dose 10-500 nM, time 6-48 hrs
[28] = test system: HCT-116; assay: Induction of apoptosis in human HCT-116 cells assessed as downregulation of NUP43 gene expression at 10 to 500 nM incubated for 6 to 48 hrs by RNA analysis; format: functional, cell-based; conditions: dose 10-500 nM, time 6-48 hrs
[29] = test system: HCT-116; assay: Induction of apoptosis in human HCT-116 cells assessed as downregulation of NUP93 gene expression at 10 to 500 nM incubated for 6 to 48 hrs by RNA analysis; format: functional, cell-based; conditions: dose 10-500 nM, time 6-48 hrs
[30] = test system: HCT-116; assay: Induction of apoptosis in human HCT-116 cells assessed as downregulation of SEH1L gene expression at 10 to 500 nM incubated for 6 to 48 hrs by RNA analysis; format: functional, cell-based; conditions: dose 10-500 nM, time 6-48 hrs
[31] = test system: HCT-116; assay: Induction of apoptosis in human HCT-116 cells assessed as downregulation of NUDT1 gene expression at 10 to 500 nM incubated for 6 to 48 hrs by RNA analysis; format: functional, cell-based; conditions: dose 10-500 nM, time 6-48 hrs
[32] = test system: HCT-116; assay: Induction of apoptosis in human HCT-116 cells assessed as downregulation of DPYD gene expression at 10 to 500 nM incubated for 6 to 48 hrs by RNA analysis; format: functional, cell-based; conditions: dose 10-500 nM, time 6-48 hrs
[33] = test system: HCT-116; assay: Induction of apoptosis in human HCT-116 cells assessed as downregulation of ACACA gene expression at 10 to 500 nM incubated for 6 to 48 hrs by RNA analysis; format: functional, cell-based; conditions: dose 10-500 nM, time 6-48 hrs

Structure (SMILES) | Activity [1] | IC50 [2] [nM] | Activity [3] [mm] | Activity [6] | Activity [7] | Activity [8] | Activity [9] | Activity [10] | Activity [11] | Activity [13] | Activity [14] | Activity [15] | Activity [16] | Activity [17] | Activity [18] | Activity [19] | Activity [20] | Activity [21] | Activity [22] | Activity [23] | also measured
CC[C@@]1(O)C(=O)OCc2c1cc1n(c2=O)Cc2c-1nc1cc3c(cc1c2-c1ccc(OC)cc1)OCO3 | Active | 43.3 | 1.3 | Active | Active | Active | Active | Active | Active | Active | Active | Active | Active | Active | Active | Active | Active | Active | Active | Active | Activity [4]: Active; Activity [5]: Active; Activity [12]: Active; Activity [24]: Active; Activity [25]: Active; Activity [26]: Active; Activity [27]: Active; Activity [28]: Active; Activity [29]: Active; Activity [30]: Active; Activity [31]: Active; Activity [32]: Active; Activity [33]: Active
CC[C@@]1(O)C(=O)OCc2c1cc1n(c2=O)Cc2cc3cc4c(cc3nc2-1)OCO4 | Active | 50.7 | 1.3 | Active | Active | Active | Active | Active | Active | Active | Active | Active | Active | Active | Active | Active | Active | Active | Active | Active | Activity [12]: Active; Activity [24]: Active; Activity [25]: Active; Activity [26]: Active; Activity [27]: Active; Activity [28]: Active; Activity [29]: Active; Activity [30]: Active; Activity [31]: Active; Activity [32]: Active; Activity [33]: Active
CC[C@@]1(O)C(=O)OCc2c1cc1n(c2=O)Cc2c-1nc1cc3c(cc1c2-c1cc(OC)cc(OC)c1)OCO3 | Active | 28.5 | 1.5 | Active | Active | Active | Active | Active | Active | Active | Active | Active | Active | Active | Active | Active | Active | Active | Active | Active | Activity [4]: Active; Activity [5]: Active; Activity [24]: Active; Activity [25]: Active; Activity [26]: Active; Activity [27]: Active; Activity [28]: Active; Activity [29]: Active; Activity [30]: Active; Activity [31]: Active; Activity [33]: Active
CCc1ccc(-c2c3c(nc4cc5c(cc24)OCO5)-c2cc4c(c(=O)n2C3)COC(=O)[C@]4(O)CC)cc1 | Active | 57.2 | 1.3 | Active | Active | Active | Active | Active | Active | Active | Active | Active | Active | Active | Active | Active | Active | Active | Active | Active | Activity [4]: Active; Activity [5]: Active; Activity [12]: Active; Activity [24]: Active; Activity [25]: Active; Activity [26]: Active; Activity [27]: Active; Activity [28]: Active; Activity [29]: Active; Activity [30]: Active; Activity [31]: Active; Activity [32]: Active; Activity [33]: Active
